Read-outs that look alike come from different tables or passages of the source.
Key:
cyclin D1/cdk 4 enzyme = molecular target: T1, cyclin D1/cdk 4 enzyme (Homo sapiens, UniProt P11802); experiment: CDK4 ELISA kinase assay (phospho-Rb ser 795 detection); assay type: biochemical
T1 construct: made in house; host or cells: Sf9 insect cells, recombinant baculovirus
Summary of the method: (§1)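 GST-Rb C-terminal fragment coated on plates; partially purified Sf9-expressed cyclin D1/CDK4, cyclin E/CDK2 or cyclin B/CDK1 with 200 μM ATP, pH 7.5 HEPES/MgCl2 buffer, 1 h at 30 °C; screen compound final 10 μg/ml. Phospho-Rb Ser795 detected by antibody ELISA (TMB, A450); % of control, IC50 from background-subtracted inhibition curves.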

cyclin E/CDK2 enzyme = molecular target: T2, cyclin E/CDK2 enzyme (Homo sapiens, UniProt P24941); experiment: CDK2 ELISA kinase assay (phospho-Rb ser 795 detection); assay type: biochemical
T2 construct: made in house; host or cells: Sf9 insect cells, recombinant baculovirus
Summary of the method: as §1

cyclin B/CDK1 enzyme = molecular target: T3, cyclin B/CDK1 enzyme (Homo sapiens, UniProt P06493); experiment: CDK1 ELISA kinase assay (phospho-Rb ser 795 detection); assay type: biochemical
T3 construct: purchased New England BioLabs; host or cells: Sf9 insect cells, recombinant baculovirus
Summary of the method: as §1

BT474 = experiment: Cytotoxicity assay (SRB), BT474; assay type: cell-based
Summary of the method: (§2)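 Growth inhibition, SRB method: 3-day continuous compound exposure for HCT-116, LoVo and MCF-7 and 6-day exposure for BT474. Absorbance at 540 nm reflects surviving cell protein relative to controls.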

HCT-116 = experiment: Cytotoxicity assay (SRB), HCT-116; assay type: cell-based; conditions: Homo sapiens, HCT-116, 72 h, HCT116 cells, SRB, read-out: In Vitro Cellular Activity IC50 HCT116
Summary of the method: as §2

LoVo = experiment: Cytotoxicity assay (SRB), LoVo; assay type: cell-based; conditions: Homo sapiens, LoVo, 72 h, LoVo cells, SRB, read-out: In Vitro Cellular Activity IC50 LOVO
Summary of the method: as §2

MCF-7 = experiment: Cytotoxicity assay (SRB), MCF-7; assay type: cell-based; conditions: Homo sapiens, MCF7, 72 h, MCF-7 cells, SRB, read-out: In Vitro Cellular Activity IC50 MCF-7
Summary of the method: as §2

[1] = In Vitro Enzyme Assays, 200 μM ATP, read-out: CDK4 IC50
[2] = In Vitro Enzyme Assays, read-out: CDK2 IC50
[3] = In Vitro Enzyme Assays, read-out: CDK1 IC50
[4] = Homo sapiens, BT-474, 144 h, BT474 cells, SRB, 6 days; read-out: In Vitro Cellular Activity IC50 BT474
[5] = In Vitro Enzyme Assay, cyclin D1/cdk 4, read-out: CDK4 IC50
[6] = In Vitro Enzyme Assay, cyclin E/CDK2, read-out: CDK2 IC50
[7] = In Vitro Enzyme Assay, cyclin B/CDK1, read-out: CDK1 IC50
[8] = Homo sapiens, BT-474, 144 h, BT474 cells, 6 days, SRB; read-out: In Vitro Cellular Activity IC50 BT474

T1 sequence (P11802 whole entry, species assumed): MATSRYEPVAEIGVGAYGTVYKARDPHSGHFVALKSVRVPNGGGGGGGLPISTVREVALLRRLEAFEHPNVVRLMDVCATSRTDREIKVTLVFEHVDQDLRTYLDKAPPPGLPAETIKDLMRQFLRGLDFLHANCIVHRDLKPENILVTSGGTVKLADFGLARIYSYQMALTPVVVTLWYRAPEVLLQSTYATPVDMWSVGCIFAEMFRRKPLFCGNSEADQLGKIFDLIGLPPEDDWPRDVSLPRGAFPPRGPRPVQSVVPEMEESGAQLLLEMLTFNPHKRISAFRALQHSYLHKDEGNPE
T1 sequence (P24385 whole entry partner, species assumed): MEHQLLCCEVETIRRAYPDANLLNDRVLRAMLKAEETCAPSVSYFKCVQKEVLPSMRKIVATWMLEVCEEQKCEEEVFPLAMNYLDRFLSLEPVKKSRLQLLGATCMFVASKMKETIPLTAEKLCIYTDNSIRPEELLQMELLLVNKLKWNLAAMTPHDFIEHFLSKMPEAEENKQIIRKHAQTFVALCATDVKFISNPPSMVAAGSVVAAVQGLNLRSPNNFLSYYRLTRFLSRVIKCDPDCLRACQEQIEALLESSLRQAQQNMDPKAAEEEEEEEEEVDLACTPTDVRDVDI
T3 sequence (P06493 whole entry): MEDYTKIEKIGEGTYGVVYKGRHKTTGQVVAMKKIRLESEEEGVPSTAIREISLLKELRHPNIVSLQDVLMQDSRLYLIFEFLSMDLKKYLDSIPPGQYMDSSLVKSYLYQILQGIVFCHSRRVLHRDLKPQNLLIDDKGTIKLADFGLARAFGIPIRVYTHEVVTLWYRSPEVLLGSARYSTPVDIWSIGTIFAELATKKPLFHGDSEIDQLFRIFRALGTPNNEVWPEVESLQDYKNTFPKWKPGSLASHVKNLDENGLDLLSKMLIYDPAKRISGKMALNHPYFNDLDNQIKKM
T3 sequence (P14635 whole entry partner): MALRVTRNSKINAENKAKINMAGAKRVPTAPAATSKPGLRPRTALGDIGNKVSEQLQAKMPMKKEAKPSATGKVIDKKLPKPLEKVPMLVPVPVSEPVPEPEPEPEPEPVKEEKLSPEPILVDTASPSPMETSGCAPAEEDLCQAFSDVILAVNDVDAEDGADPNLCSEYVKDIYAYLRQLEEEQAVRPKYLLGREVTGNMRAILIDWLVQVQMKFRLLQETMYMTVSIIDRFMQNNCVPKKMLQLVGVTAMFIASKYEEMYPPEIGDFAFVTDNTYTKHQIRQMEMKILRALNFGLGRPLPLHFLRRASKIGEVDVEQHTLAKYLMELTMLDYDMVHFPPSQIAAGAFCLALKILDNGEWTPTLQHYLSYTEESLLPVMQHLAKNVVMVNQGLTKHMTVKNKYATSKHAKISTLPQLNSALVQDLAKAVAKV

Row | SMILES | IC50 (cyclin D1/cdk 4 enzyme; [1]) | IC50 (cyclin E/CDK2 enzyme; [2]) | IC50 (cyclin B/CDK1 enzyme; [3]) | IC50 (BT474; [4]) | IC50 (HCT-116; three days) | IC50 (LoVo; three days) | IC50 (MCF-7; three days) | melting point | IC50 (cyclin D1/cdk 4 enzyme; [5]) | IC50 (cyclin E/CDK2 enzyme; [6]) | IC50 (cyclin B/CDK1 enzyme; [7]) | IC50 (BT474; [8]) | IC50 (HCT-116; 3 days) | IC50 (LoVo; 3 days) | IC50 (MCF-7; 3 days)
1 | COC(=O)Nc1ccc(CN/C=C2\C(=O)NC(=O)c3ccc(Br)cc32)cc1OC(=O)OC [Example 184, 5-({[(Z)-(6-Bromo-1,3-dioxo-2,3-dihydroisoquinolin-4(1H)-′ylidene)methyl]amino}methyl)-2-[(methoxycarbonyl)amino]phenyl methyl carbonate] | 6 µM | 41.5 µM | > 50 µM | 8.5 µM | 13 µM | 20 µM | 50 µM | 179 to 180 °C | – | – | – | – | – | – | –
2 | CC1CCCN1Cc1ccc(N/C=C2\C(=O)NC(=O)c3ccc(-c4ccoc4)cc32)cc1 (centres unmarked) [Example 291, (4Z)-6-(3-Furyl)-4-[({4-[(2-methylpyrrolidin-1-yl)methyl]phenyl}amino)methylene]-isoquinoline-1,3(2H,4H)-dione] | 0.19 µM | > 50 µM | > 50 µM | 1 µM | 2.3 µM | 1.9 µM | 0.59 µM | 165 to 166 °C | – | – | – | – | – | – | –
3 | CN1CCN(c2ccc(N/C=C3\C(=O)NC(=O)c4ccc(-c5ccoc5)cc43)nn2)CC1 [Example 476, (4Z)-6-(3-Furyl)-4-({[6-(4-methylpiperazin-1-yl)pyridazin-3-yl]amino}methylene)isoquinoline-1,3(2H,4H)-dione] | – | – | – | – | – | – | – | 275 to 276 °C | 0.82 µM | > 50 µM | 24.7 µM | 2.6 µM | 1.9 µM | 3.1 µM | 4.5 µM
4 | COc1ccc2c(c1)/C(=C/NCc1ccc(OC)c(O)c1)C(=O)NC2=O [Example 90, 4-[(3-Hydroxy-4-methoxy-benzylamino)-methylene]-6-methoxy-4H-isoquinoline-1,3-dione] | 0.031 µM | 2.9 µM | 22.3 µM | 6.9 µM | 9.8 µM | 24 µM | 12 µM | 240 to 242 °C (dec.) | – | – | – | – | – | – | –
5 | CN1CCN(c2ccc(N/C=C3\C(=O)NC(=O)c4ccc(Br)cc43)cn2)CC1 [Example 250, (4Z)-6-Bromo-4-({[6-(4-methylpiperazin-1-yl)pyridin-3-′yl]amino}methylene)isoquinoline-1,3(2H,4H)-dione] | 2.8 µM | > 50 µM | > 50 µM | 7.6 µM | 6.2 µM | 7.1 µM | 1.6 µM | 265 to 266 °C | – | – | – | – | – | – | –
6 | COCC#Cc1ccc2c(c1)/C(=C/Nc1ccc(N3CCN(C)CC3)cc1)C(=O)NC2=O [Example 177, (4Z)-6-(3-Methoxyprop-1-ynyl)-4-({[4-(4-methylpiperazin-1-yl)phenyl]amino}-methylene)isoquinoline-1,3(2H,4H)-dione] | 1.1 µM | > 50 µM | > 50 µM | 3.9 µM | 3.1 µM | 3.9 µM | 4.1 µM | 209 to 210 °C | – | – | – | – | – | – | –
7 | C[C@@H]1CN(c2ccc(N/C=C3\C(=O)NC(=O)c4ccc(-c5ccoc5)cc43)nc2)C[C@H](C)N1 [Example 468, (4Z)-4-[({5-[(3R,5S)-3,5-Dimethylpiperazin-1-yl]pyridin-2-yl}amino)methylene]-6-(3-furyl)isoquinoline-1,3(2H,4H)-dione] | – | – | – | – | – | – | – | 230 to 231 °C | 0.17 µM | > 50 µM | > 50 µM | 2.1 µM | 1.1 µM | 1.6 µM | 1.5 µM
8 | O=C1NC(=O)c2ccc(I)cc2/C1=C/Nc1ccc(CN2CCOCC2)cc1 [Example 296, (4Z)-6-Iodo-4-({[4-(morpholin-4-ylmethyl)phenyl]amino}methylene)isoquinoline-1,3(2H,4H)-dione] | 2.1 µM | > 50 µM | > 50 µM | 6.2 µM | 4 µM | 5 µM | 2.6 µM | 186 to 187 °C | – | – | – | – | – | – | –
9 | O=C1NC(=O)c2ccc(-c3ccsc3)cc2/C1=C/Nc1ccc(N2CCN3CCC[C@H]3C2)c(F)c1 [Example 382, (4Z)-4-[({3-Fluoro-4-[(8aS)-hexahydropyrrolo[1,2-a]pyrazin-2(1H)-yl]phenyl}amino)-methylene]-6-thien-3-ylisoquinoline-1,3(2H,4H)-dione] | 0.29 µM | > 50 µM | > 50 µM | 2.7 µM | 1.2 µM | 3.7 µM | 2.7 µM | 208 to 209 °C | – | – | – | – | – | – | –
10 | CN1CCN(c2ccc(N/C=C3\C(=O)NC(=O)c4ccc(C#Cc5ccccc5)cc43)cc2)CC1 [Example 171, (4Z)-4-({[4-(4-Methylpiperazin-1-yl)phenyl]amino}methylene)-6-(phenylethynyl)-isoquinoline-1,3(2H,4H)-dione] | 2.3 µM | > 50 µM | 33.2 µM | 5.1 µM | 1.2 µM | 9.7 µM | 3 µM | 169 to 170 °C | – | – | – | – | – | – | –
11 | O=C1NC(=O)c2ccc(-c3ccsc3)cc2/C1=C/Nc1cc(F)c(N2CCN3CCC[C@H]3C2)c(F)c1 [Example 371, (4Z)-4-[({3,5-Difluoro-4-[(8aS)-hexahydropyrrolo[1,2-a]pyrazin-2(1H)-yl]phenyl}amino)-methylene]-6-thien-3-ylisoquinoline-1,3(2H,4H)-dione] | 0.1 µM | > 50 µM | > 50 µM | 3.1 µM | 1.1 µM | 2.8 µM | 4.1 µM | 190 to 191 °C | – | – | – | – | – | – | –
12 | O=C1NC(=O)c2ccc(-c3ccc(C(F)(F)F)cc3)cc2/C1=C/Nc1ccc(CN2CCCC2)cc1 [Example 282, (4Z)-4-({[4-(Pyrrolidin-1-ylmethyl)phenyl]amino}methylene)-6-[4-(trifluoromethyl)phenyl]isoquinoline-1,3(2H,4H)-dione] | 27.7 µM | > 50 µM | > 50 µM | 3 µM | 1.1 µM | 2.7 µM | 1.1 µM | 176 to 177 °C | – | – | – | – | – | – | –
13 | O=C1NC(=O)c2ccc(I)cc2/C1=C/NCc1ccc(-n2cccc2)c(O)c1 [Example 514, (4Z)-4-({[3-Hydroxy-4-(1H-pyrrol-1-yl)benzyl]amino}methylene)-6-iodoisoquinoline-1,3(2H,4H)-dione] | – | – | – | – | – | – | – | 230 to 231 °C | 0.06 µM | 15.8 µM | > 50 µM | 0.59 µM | 1.04 µM | 0.74 µM | 2.25 µM
